{"source": "patent US11926620B1", "about": "“1-Cyclopropyl-6-fluoro-4-oxo-7-(4-((2-thioxobenzo[d]oxazol-3(2H)-yl)methyl)piperazin-1-yl)-1,4-dihydroquinoline-3-carboxylic acid as an antimicrobial and anticancer compound” (KING FAISAL UNIVERSITY, priority 2023, dated 2024)", "key": {"[1]": {"test_system": "human prostate cancer cells (PC3)", "assay": "Cytotoxicity by SRB assay, PC3", "assay_type": "cell-based", "conditions": "0.01 μM to 100 μM for 72 h, result in words", "protocol": "(§1) The human prostate cancer cells (PC3) and human osteosarcoma cells (MG-63) were obtained from Nawah Scientific Inc. (Mokatam, Cairo, Egypt) and cultured in DMEM (Dulbecco's modified eagle's medium), Gibco, USA, supplemented with fetal bovine serum (FBS) at a concentration of 10% and 100 U/mL of penicillin and streptomycin (PS). The Cells were incubated at 37° C. in a humidified environment that contained 5% CO2. Cells were seeded in 96-well plates as aliquots of 100 μL cell suspension and incubated in a complete media for 24 h. afterward, cells were treated with 1-Cyclopropyl-6-fluoro-4-oxo-7-(4-((2-thioxobenzo[d]oxazol-3(2H)-yl)methyl)piperazin-1-yl)-1,4-dihydroquinoline-3-carboxylic acid at diverse concentrations ranging from 0.01 μM to 100 μM for 72 h. Then, cells were fixed at 4° C. for one hour with 150 μL of 10% trichloroacetic acid (TCA). […] Then, 150 μL of Tris pH 10.5 (10 mM) was added, and the absorbance was measured at 540 nm using a BMG LABTECH®-FLUOstar Omega microplate reader (Ortenberg, Germany). Half maximal inhibitory concentrations (IC50) values were calculated for each experiment using GraphPad Prism 6 software. […] The inhibition was calculated using the following equation: Inhibition %=100−Average Viability"}, "[2]": {"test_system": "human osteosarcoma cells (MG-63)", "assay": "Cytotoxicity by SRB assay, MG-63", "assay_type": "cell-based", "conditions": "MG-63 cells, 0.01 μM to 100 μM for 72 h, result in words", "protocol": "as §1"}, "[3]": {"test_system": "Bacillus cereus", "assay": "Agar plate disc-diffusion, Bacillus cereus", "assay_type": "cell-based", "conditions": "gram positive Bacillus cereus; disc 10 μL of 10 mg/mL in DMSO, 37° C., 48 h; result in words", "protocol": "(§2) The antimicrobial properties of the synthesized compounds were studied by the method of agar plate disc-diffusion. Sterilized filter papers (6 mm in diameter) were wetted with 10 μL of a solution of each compound to be tested, containing 10 mg/mL in DMSO, and the discs were allowed to air dry. The discs were then placed onto the surface of agar plates (nutrient agar for bacteria and Sabouraud's dextrose agar for fungi) seeded with the test organism. Each plate contained 15 mL of the agar medium, previously seeded with 0.2 mL of the broth culture of each organism pregrown for 18 h. The plates were incubated at 37° C. for 48 h, and 72 h for fungi. The inhibition zones were measured in mm. Discs impregnated with DMSO were used as a control, and its inhibition zone was subtracted from the tested compound actual inhibition zone."}, "[4]": {"test_system": "Staphylococcus aureus", "assay": "Agar plate disc-diffusion, Staphylococcus aureus", "assay_type": "cell-based", "conditions": "gram positive Staphylococcus aureus; disc 10 μL of 10 mg/mL in DMSO, 37° C., 48 h; result in words", "protocol": "as §2"}, "[5]": {"test_system": "Pseudomonas aeruginosa", "assay": "Agar plate disc-diffusion, Pseudomonas aeruginosa", "assay_type": "cell-based", "conditions": "gram-negative Pseudomonas aeruginosa; disc 10 μL of 10 mg/mL in DMSO, 37° C., 48 h; result in words", "protocol": "as §2"}, "[6]": {"test_system": "Escherichia coli", "assay": "Agar plate disc-diffusion, Escherichia coli", "assay_type": "cell-based", "conditions": "gram-negative Escherichia coli; disc 10 μL of 10 mg/mL in DMSO, 37° C., 48 h; result in words", "protocol": "as §2"}, "[7]": {"test_system": "Aspergillus flavus", "assay": "Agar plate disc-diffusion, Aspergillus flavus", "assay_type": "cell-based", "conditions": "disc 10 μL of 10 mg/mL in DMSO, 72 h, result in words", "protocol": "as §2"}, "[8]": {"test_system": "Chrysosporium keratinophilum", "assay": "Agar plate disc-diffusion, Chrysosporium keratinophilum", "assay_type": "cell-based", "conditions": "disc 10 μL of 10 mg/mL in DMSO, 72 h, result in words", "protocol": "as §2"}}}
{"smiles": "O=C(O)c1cn(C2CC2)c2cc(N3CCN(Cn4c(=S)oc5ccccc54)CC3)c(F)cc2c1=O", "note": "[1-cyclopropyl-6-fluoro-4-oxo-7-(4-((2-thioxobenzo[d]oxazol-3(2H)-yl)methyl)piperazin-1-yl)-1,4-dihydroquinoline-3-carboxylic acid]", "values": [{"measurement": "antiproliferative activity", "setting": "[1]", "result": "excellent antiproliferative activities"}, {"measurement": "antiproliferative activity", "setting": "[2]", "result": "excellent antiproliferative activities"}, {"measurement": "antibacterial activity", "setting": "[3]", "result": "excellent antimicrobials activities"}, {"measurement": "antibacterial activity", "setting": "[4]", "result": "excellent antimicrobials activities"}, {"measurement": "antibacterial activity", "setting": "[5]", "result": "excellent antimicrobials activities"}, {"measurement": "antibacterial activity", "setting": "[6]", "result": "excellent antimicrobials activities"}, {"measurement": "antifungal activity", "setting": "[7]", "result": "excellent antimicrobials activities"}, {"measurement": "antifungal activity", "setting": "[8]", "result": "excellent antimicrobials activities"}, {"measurement": "melting point", "result": "187 to 189", "unit": "°C"}]}
